Here are results for 19 compounds from ChEMBL document CHEMBL2028040, “Malaria Box”.

A value given as a limit tells only on which side of the number the result lay.

Data set [1] has as its system Plasmodium falciparum. Put plainly: MMV: Inhibition of Plasmodium falciparum 3D7 at 5uM compound concentration. Format: functional.
Data set [2] deals with Plasmodium falciparum. Put plainly: MMV: Inhibition of Plasmodium falciparum 3D7 (EC50). The format is functional, organism-based.
The subject of data set [3] is Plasmodium falciparum. Put plainly: MMV: Inhibition of Plasmodium falciparum K1 (EC50). The format is functional, organism-based.
The test system of another data set is Trypanosoma cruzi. Put plainly: MMV: Inhibition of Trypanosoma cruzi (Tulahuen C4 LacZ) (Chagas in vitro). The format is functional, organism-based.
In data set [4] the test system is Trypanosoma brucei brucei. Put plainly: MMV: Inhibition of Trypanosoma brucei brucei (Squib 427) (HAT in vitro). Format: functional, organism-based.
For data set [5], the system named is Trypanosoma brucei rhodesiense. Put plainly: MMV: Inhibition of Trypanosoma brucei rhodesiense (STIB 900) (HAT in vitro). The format is functional, organism-based.
The subject of a further data set is Leishmania infantum. Put plainly: MMV: Inhibition of Leishmania infantum (MHOM/MA/BE/67) in vitro. The format is functional, organism-based.
Data set [6] in a line: MMV: Cytotoxicity against human fibroblasts (MRC-5) cells. The note with it: MRC-5 cells (human fibroblasts).

As for `CCCCCC(=O)N1c2ccccc2N=C2CC(c3ccc(OC)c(OC)c3)CC(O)=C2C1c1ccc(C(F)(F)F)cc1` (configuration not stated), in the data set on Plasmodium falciparum [1], at 5 µM the inhibition was 100%. The EC50 in the data set with Plasmodium falciparum [2] was 0.237 µM; in the data set on Plasmodium falciparum [3] it was 0.288 µM. Besides, the IC50 is 12.1 µM in the data set on Trypanosoma cruzi; 4.06 µM in data set [4]; 1.69 µM in data set [5]; 25.4 µM with Leishmania infantum; greater than 32 µM in data set [6].

As for `FC(F)(F)c1cccc(Nc2nc3ccccc3nc2Nc2cccc(C(F)(F)F)c2)c1`, the inhibition at 5 µM in the data set with Plasmodium falciparum [1] worked out at 99%. Moreover, the EC50 is 0.313 µM in the data set with Plasmodium falciparum [2] and 0.501 µM in the data set with Plasmodium falciparum [3]. In addition, the IC50 with Trypanosoma cruzi was determined as 3.75 µM; in data set [4] it was 3.78 µM; in data set [5] it was 4 µM; in the data set on Leishmania infantum it was 4.06 µM; in data set [6], 9.31 µM.

In the case of `Cc1ccc(C(=O)c2oc3ccc4c(C)cc(=O)oc4c3c2C)cc1`, in the data set with Plasmodium falciparum [1], the inhibition at 5 µM stood at 96%. Moreover, the EC50 came to 0.906 µM in the data set with Plasmodium falciparum [2] and 1.04 µM with Plasmodium falciparum [3]. For the same compound, the IC50 with Trypanosoma cruzi is greater than 32 µM; in data set [4], greater than 32 µM; in data set [5], greater than 32 µM; in the data set with Leishmania infantum it was greater than 32 µM; in data set [6], 21.2 µM.

Regarding `COc1cccc(NC(=O)Cn2c(C)c(C#N)c3ccccc32)c1`, 5 µM produced 95% inhibition with Plasmodium falciparum [1]. Besides, the figures for the EC50 in the data set with Plasmodium falciparum [2] and in the data set with Plasmodium falciparum [3] were 1.09 µM and 1.48 µM, respectively. In addition, the IC50 with Trypanosoma cruzi is greater than 32 µM; in data set [4], greater than 32 µM; in data set [5] it was 20.2 µM; with Leishmania infantum it was greater than 32 µM; in data set [6], greater than 32 µM.

Take `CC(C)(C)c1ccc(O)c(CNC2CCCCC2)c1`: in the data set on Plasmodium falciparum [1], the inhibition at 5 µM worked out at 96%. In addition, the EC50 came to 0.161 µM in the data set on Plasmodium falciparum [2] and 0.0458 µM in the data set on Plasmodium falciparum [3]. Besides, the IC50 in the data set with Trypanosoma cruzi is 21.2 µM; in data set [4], 3.78 µM; in data set [5], 4 µM; with Leishmania infantum, 16 µM; in data set [6] it was greater than 32 µM.

Regarding `CCOC(=O)c1c(NC(=O)c2ccccc2)sc2c(O)c(CN(CC)CC)ccc12`, in the data set on Plasmodium falciparum [1], testing at 5 µM gave an inhibition of 96%. Besides, the results for the EC50 in the data set with Plasmodium falciparum [2] and with Plasmodium falciparum [3] were 0.205 µM and 0.114 µM, respectively. In addition, the IC50 with Trypanosoma cruzi was greater than 32 µM; in data set [4] it was greater than 32 µM; in data set [5], greater than 32 µM; in the data set with Leishmania infantum, 16.2 µM; in data set [6] it was greater than 32 µM.

The compound `CCOc1cc(Cl)c(C(C)NC(=O)c2cccc(OC)c2)cc1OCC` (configuration not stated) had an inhibition at 5 µM in the data set with Plasmodium falciparum [1] of 98%. In addition, the results for the EC50 in the data set with Plasmodium falciparum [2] and with Plasmodium falciparum [3] were 0.728 µM and 1.36 µM, respectively. Also, the IC50 was 18.7 µM with Trypanosoma cruzi; greater than 32 µM in data set [4]; 21 µM in data set [5]; greater than 32 µM in the data set on Leishmania infantum; 6.59 µM in data set [6].

In the data set on Plasmodium falciparum [1], `CCCCOC(=O)c1ccc(Nc2cc(C)nc3ccc(OC)cc23)cc1` had an inhibition at 5 µM of 99%. For the same compound, the EC50 in the data set on Plasmodium falciparum [2] was 0.584 µM; in the data set with Plasmodium falciparum [3], 2.14 µM. The IC50 in the data set on Trypanosoma cruzi amounted to 3.67 µM; in data set [4], 3.94 µM; in data set [5], 3.51 µM; in the data set with Leishmania infantum, 4.76 µM; in data set [6], 14.3 µM.

With `CC(NCc1ccccc1)c1cc(Cl)ccc1O` (configuration not stated), the inhibition at 5 µM in the data set on Plasmodium falciparum [1] stood at 95%. The EC50 in the data set with Plasmodium falciparum [2] came out at 0.603 µM; with Plasmodium falciparum [3], 0.243 µM. Also, the IC50 was greater than 32 µM in the data set with Trypanosoma cruzi; greater than 32 µM in data set [4]; 16 µM in data set [5]; greater than 32 µM in the data set on Leishmania infantum; greater than 32 µM in data set [6].

`O=c1cc(NC2CCN(CCCc3ccccc3)CC2)c2cc(Cl)ccc2o1` came in with an inhibition at 5 µM in the data set on Plasmodium falciparum [1] of 97%. Also, the EC50 with Plasmodium falciparum [2] turned out to be 0.846 µM; with Plasmodium falciparum [3], 0.532 µM. Besides, the IC50 in the data set with Trypanosoma cruzi is 15.6 µM; in data set [4] it was 15 µM; in data set [5] it was 4.09 µM; with Leishmania infantum it was 10.1 µM; in data set [6], greater than 32 µM.

In the data set on Plasmodium falciparum [1], `COc1ccc(C=C2SC(Nc3ccc(F)cc3)=NC2=O)c(OC)c1` returned an inhibition at 5 µM of 92%. The EC50 amounted to 0.591 µM with Plasmodium falciparum [2] and 0.825 µM in the data set on Plasmodium falciparum [3]. The IC50 (in the data set on Trypanosoma cruzi; in data set [4]; in data set [5]; in the data set with Leishmania infantum; in data set [6]) was greater than 32 µM throughout.

Consider `COc1ccccc1NC1=C(N2CCCCC2)C(=O)c2ccccc2C1=O`, for which the inhibition at 5 µM in the data set on Plasmodium falciparum [1] worked out at 98%. Further, the results for the EC50 in the data set with Plasmodium falciparum [2] and in the data set with Plasmodium falciparum [3] were 0.0053 µM and 0.01 µM, respectively. Also, the IC50 is less than 0.125 µM in the data set with Trypanosoma cruzi; 1.01 µM in data set [4]; 0.315 µM in data set [5]; 3.01 µM in the data set on Leishmania infantum; 9.88 µM in data set [6].

Regarding `Oc1c(C(Nc2ccccn2)c2cccc(Oc3ccccc3)c2)ccc2cccnc12` (configuration not stated), the inhibition at 5 µM with Plasmodium falciparum [1] amounted to 97%. For the same compound, the figures for the EC50 in the data set on Plasmodium falciparum [2] and in the data set on Plasmodium falciparum [3] were 1.01 µM and 1.07 µM, respectively. Moreover, the IC50 in the data set on Trypanosoma cruzi is 1.05 µM; in data set [4], 1.01 µM; in data set [5], 0.972 µM; in the data set on Leishmania infantum, 1 µM; in data set [6], 3.89 µM.

In the data set with Plasmodium falciparum [1], `CCOC(=O)c1cn(CC)c2cc(N3CCCCC3)c(F)cc2c1=O` gave an inhibition at 5 µM of 100%. Besides, the results for the EC50 in the data set with Plasmodium falciparum [2] and with Plasmodium falciparum [3] were 0.119 µM and 0.259 µM, respectively. The IC50 (in the data set on Trypanosoma cruzi; in data set [4]; in data set [5]; in the data set on Leishmania infantum; in data set [6]) was greater than 32 µM throughout.

Turning to `CCCc1cc(O)c2c3c(c(=O)oc2c1)CN(C)CC3`, the inhibition at 5 µM in the data set on Plasmodium falciparum [1] turned out to be 97%. The EC50 in the data set with Plasmodium falciparum [2] was found to be 0.146 µM; in the data set on Plasmodium falciparum [3], 0.0807 µM. The IC50 (in the data set on Trypanosoma cruzi; in data set [4]; in data set [5]; in the data set on Leishmania infantum; in data set [6]) was greater than 32 µM in each case.

The compound `CCOc1ccc(-c2nonc2NC(=O)c2cccc(C)c2)cc1OCC` returned an inhibition at 5 µM in the data set on Plasmodium falciparum [1] of 86%. Moreover, the EC50 came out at 0.117 µM in the data set with Plasmodium falciparum [2] and 0.127 µM with Plasmodium falciparum [3]. Besides, the IC50 (with Trypanosoma cruzi; in data set [4]; in data set [5]; with Leishmania infantum; in data set [6]) was greater than 32 µM in each case.

The compound `COc1ccc2c(=O)cc(C(Cl)(Cl)Cl)oc2c1` returned an inhibition at 5 µM in the data set with Plasmodium falciparum [1] of 94%. In addition, the EC50 in the data set on Plasmodium falciparum [2] was determined as 0.52 µM; with Plasmodium falciparum [3], 0.55 µM. In addition, the IC50 is 0.432 µM with Trypanosoma cruzi; 16.9 µM in data set [4]; greater than 32 µM in data set [5]; 16.2 µM in the data set with Leishmania infantum; 7.58 µM in data set [6].

Regarding `CC1CC2=C(CC1CNCCCN(C)C)C(C)(C)CCC2` (configuration not stated), the inhibition at 5 µM in the data set with Plasmodium falciparum [1] was 98%. For the same compound, the EC50 is 1.01 µM in the data set on Plasmodium falciparum [2] and 1 µM in the data set with Plasmodium falciparum [3]. Further, the IC50 in the data set with Trypanosoma cruzi is 1.08 µM; in data set [4], less than 0.125 µM; in data set [5] it was less than 0.125 µM; in the data set with Leishmania infantum, 3.01 µM; in data set [6] it was 4.15 µM.

Take `Cc1c(C)n(CC(O)CNC2CCCCC2C)c2ccccc12` (configuration not stated): the inhibition at 5 µM in the data set with Plasmodium falciparum [1] worked out at 96%. Besides, the EC50 in the data set with Plasmodium falciparum [2] was determined as 0.769 µM; in the data set on Plasmodium falciparum [3], 0.438 µM. The IC50 in the data set on Trypanosoma cruzi was greater than 32 µM; in data set [4], 3.84 µM; in data set [5], 1.01 µM; in the data set on Leishmania infantum, greater than 32 µM; in data set [6], greater than 32 µM.
